This note sets out measurements from PubChem BioAssay AID1745844 (Carcinogenic Potency Database (CPDB), 2022).

The series concerns rodent lifetime carcinogenesis bioassay, tumor incidence TD50. The series is described as follows: chronic cancer bioassays in animals – CPDB, compiled studies (AID 1745844).

Where “and” joins values, the source holds several entries; their conditions need not be identical. Equal entries are not always repeated. Calls of active or inactive are those of the source. How the calls were made is not given here. Numbered stars: 1 amine (or outer) side, 2 acyl side, 3 side chain; on linkers, the order of the positions; unused ones are H or OH. Bridge positions count the residues as written; N and C are the ends. Square brackets hold non-standard residues; d marks the D form. Peptide text beside a SMILES is read from it. I, II: the chains in the order shown. Actinocin(1to9) = Cc1c2oc3c(C)ccc(C(=O)[*:2])c3nc-2c(C(=O)[*:1])c(N)c1=O; NMeV = CN[C@H](C(=O)O)C(C)C; Sar = CNCC(=O)O

Broadly, the TD50 is the dose at which the toxic effect under study appears in half of the subjects. With `CCN(Cc1cccc(S(=O)(=O)[O-])c1)c1ccc(C(=C2C=CC(=[N+](C)C)C=C2)c2ccc(N(CC)Cc3cccc(S(=O)(=O)O)c3)cc2)cc1`, the carcinogen call is, setting by setting: (mouse, strain ASH-CS1, females, in feed, site: liver, lesion: one or several types, types not named, dosed 80 weeks, study length 80 weeks) “negative (inactive)”; (mouse, strain ASH-CS1, males, in feed, site: liver, lesion: one or several types, types not named, dosed 80 weeks, study length 80 weeks) “negative (inactive)”; (mouse, strain ASH-CS1, males, in feed, site: lung, lesion: adenoma, dosed 80 weeks, study length 80 weeks) “negative (inactive)”. In addition, the TD50 is, setting by setting: (mouse, strain ASH-CS1, females, in feed, site: lung, lesion: adenoma, dosed 80 weeks, study length 80 weeks) 1910 mg/kg/day (inactive); (mouse, strain ASH-CS1, males, in feed, site: lung, lesion: adenocarcinoma, dosed 80 weeks, study length 80 weeks) 4660 mg/kg/day (inactive); (rat, strain Sprague-Dawley albino, females, in feed, site: any site (literature study), lesion: malignant tumor, dosed 52 weeks, study length 52 weeks) 568 mg/kg/day; (rat, strain Sprague-Dawley albino, females, in feed, site: any site (literature study), lesion: several types, types named in the paper, dosed 52 weeks, study length 52 weeks) 660 mg/kg/day; (rat, strain Sprague-Dawley albino, females, in feed, site: ear duct, lesion: carcinoma, dosed 52 weeks, study length 52 weeks) 1600 mg/kg/day; (rat, strain Sprague-Dawley albino, females, in feed, site: mammary gland, lesion: carcinoma, dosed 52 weeks, study length 52 weeks) 1140 mg/kg/day. For the same molecule, the TD50 by setting is: (rat, strain Sprague-Dawley, females, in feed, site: any site (literature study), lesion: several types, types named in the paper, dosed 51 weeks, study length 52 weeks) 418 mg/kg/day; (rat, strain Sprague-Dawley, females, in feed, site: mammary gland, lesion: carcinoma, dosed 51 weeks, study length 52 weeks) 573 mg/kg/day; (rat, strain Sprague-Dawley, females, in feed, site: skin, lesion: squamous-cell carcinoma, dosed 51 weeks, study length 52 weeks) 1100 mg/kg/day.
Regarding `CC[C@H](C)[C@@H]1NC(=O)[C@@H](NC(=O)c2c3nc4c(C(=O)N[C@@H]5C(=O)N[C@@H](C(C)C)C(=O)N6CCC[C@H]6C(=O)N(C)CC(=O)N(C)[C@@H](C(C)C)C(=O)O[C@@H]5C)ccc(C)c4oc-3c(C)c(=O)c2N)[C@@H](C)OC(=O)[C@H](C(C)C)N(C)C(=O)CN(C)C(=O)[C@@H]2CCCN2C1=O` (I: TIP[Sar][NMeV] / II: TVP[Sar][NMeV]; ester I:1-I:C, II:1-II:C; linker I:N-II:N via Actinocin(1to9)), the TD50 by setting is: (rat, strain BR 46, males, i.v., site: any site (literature study), lesion: benign tumor, dosed 52 weeks, study length 104 weeks) 2.23 mg/kg/day; (rat, strain BR 46, males, i.v., site: any site (literature study), lesion: malignant tumor, dosed 52 weeks, study length 104 weeks) 10.8 mg/kg/day; (rat, strain BR 46, males, i.v., site: any site (literature study), lesion: several types, types named in the paper, dosed 52 weeks, study length 104 weeks) 1.68 mg/kg/day.
For the molecule `CN(C)CCC(c1ccc(Cl)cc1)c1ccccn1` (centres undefined), the carcinogen call by setting is: (mouse, strain B6C3F1, females, by gavage, site: any site (literature study), lesion: several types, types named in the paper, dosed 103 weeks, study length 104 weeks) “negative (inactive)”; (rat, strain Fischer 344, females, by gavage, site: any site (literature study), lesion: several types, types named in the paper, dosed 103 weeks, study length 104 weeks) “negative (inactive)”; (rat, strain Fischer 344, females, in feed, site: liver, lesion: neoplastic nodule, dosed 106 weeks, study length 128 weeks) “negative (inactive)”; (rat, strain Fischer 344, males, by gavage, site: any site (literature study), lesion: several types, types named in the paper, dosed 103 weeks, study length 104 weeks) “negative (inactive)”; (rat, strain Fischer 344, males, in feed, site: liver, lesion: neoplastic nodule, dosed 106 weeks, study length 128 weeks) “negative (inactive)”. Besides, the TD50 reads like this: (mouse, strain B6C3F1, males, by gavage, site: adrenal capsule, lesion: adenoma, NOS, dosed 103 weeks, study length 104 weeks) 84 mg/kg/day (inactive); (mouse, strain B6C3F1, males, by gavage, site: any site (literature study), lesion: several types, types named in the paper, dosed 103 weeks, study length 104 weeks) 54.1 mg/kg/day; (mouse, strain B6C3F1, males, by gavage, site: liver, lesion: hepatocellular adenoma + hepatocellular carcinoma + neoplastic nodule, dosed 103 weeks, study length 104 weeks) 101 mg/kg/day; (mouse, strain B6C3F1, males, by gavage, site: subcutaneous tissue, lesion: fibrosarcoma + fibroma + neurofibrosarcoma + sarcoma, NOS, dosed 103 weeks, study length 104 weeks) 94.7 mg/kg/day; (mouse, strain B6C3F1, males, by gavage, site: subcutaneous tissue, lesion: fibrosarcoma + neurofibrosarcoma + sarcoma, NOS, dosed 103 weeks, study length 104 weeks) 95.2 mg/kg/day; (mouse, strain B6C3F1, males, by gavage, site: subcutaneous tissue, lesion: fibrosarcoma, dosed 103 weeks, study length 104 weeks) 140 mg/kg/day. Further, the TD50 by setting is: (rat, strain Fischer 344, females, by gavage, site: liver, lesion: hepatocellular adenoma + hepatocellular carcinoma + neoplastic nodule, dosed 103 weeks, study length 104 weeks) 3180 mg/kg/day; (rat, strain Fischer 344, males, by gavage, site: liver, lesion: hepatocellular adenoma + hepatocellular carcinoma + neoplastic nodule, dosed 103 weeks, study length 104 weeks) 208 mg/kg/day.
In the case of `CCCCCN(CCCCC)N=O`, the TD50 (rat, strain Fischer 344, females, in feed, site: liver, lesion: hepatocellular carcinoma, dosed 99 weeks, study length 104 weeks) was 7.57 mg/kg/day and the TD50 (rat, strain Fischer 344, males, in feed, site: liver, lesion: hepatocellular carcinoma, dosed 89 weeks, study length 104 weeks) is 2.75 mg/kg/day.
Take `Cc1cc(N)ccc1N`: the TD50 was 33200 mg/kg/day (mouse, strain B6C3F1, females, in feed, site: any site (literature study), lesion: several types, types named in the paper, dosed 78 weeks, study length 94 weeks); 1960 mg/kg/day (mouse, strain B6C3F1, females, in feed, site: liver, lesion: hepatocellular adenoma + hepatocellular carcinoma + neoplastic nodule, dosed 78 weeks, study length 94 weeks); 364 mg/kg/day (inactive) and 364 mg/kg/day (mouse, strain B6C3F1, females, in feed, site: lung, lesion: alveolar/bronchiolar adenoma + alveolar/bronchiolar carcinoma, dosed 78 weeks, study length 94 weeks); 272 mg/kg/day (inactive) (mouse, strain B6C3F1, males, in feed, site: any site (literature study), lesion: several types, types named in the paper, dosed 78 weeks, study length 94 weeks); 288 mg/kg/day (mouse, strain B6C3F1, males, in feed, site: liver, lesion: hepatocellular adenoma + hepatocellular carcinoma + neoplastic nodule, dosed 78 weeks, study length 94 weeks); 3560 mg/kg/day (mouse, strain B6C3F1, males, in feed, site: lung, lesion: alveolar/bronchiolar adenoma + alveolar/bronchiolar carcinoma, dosed 78 weeks, study length 94 weeks). The TD50 (rat, strain Fischer 344, males, in feed, site: liver, lesion: hepatocellular adenoma + hepatocellular carcinoma + neoplastic nodule, dosed 78 weeks, study length 106 weeks) came to 233 mg/kg/day. The carcinogen call (rat, strain Fischer 344, females, in feed, site: any site (literature study), lesion: several types, types named in the paper, dosed 78 weeks, study length 107 weeks) was “negative (inactive)” and the carcinogen call (rat, strain Fischer 344, males, in feed, site: any site (literature study), lesion: several types, types named in the paper, dosed 78 weeks, study length 106 weeks) is “negative (inactive)”.
